Experimental data reported in PMC9329436, “Optimization of the 4-anilinoquin(az)oline scaffold as epidermal growth factor receptor (EGFR) inhibitors for chordoma utilizing a toxicology profiling assay platform” (Scientific Reports, 2022).

Legend:
U-CH2 chordoma cell line = assay: Cell viability assay (alamarBlue, 72 h), U-CH2; type: cell-based, human
Protocol: (§1) Chordoma cell lines were cultured as described previously[10],[12],[33],[34]. Briefly, U-CH1 and U-CH2 cell lines were cultured in 4:1 IMDM:RPMI medium supplemented with 10% fetal bovine serum (FBS) and 1% penicillin/streptomycin in gel-coated flasks. […] CH22, UM-Chor1, U-CH12, and U-CH7 cell lines were cultured in RPMI medium supplemented with 10% FBS and 1% penicillin/streptomycin. The cell lines all undergo regular mycoplasma screening.
(§2) Cells were seeded in 384 well plates and were treated with test compound in quadruplicate 24 h after plating. Cell viability was assessed at 72 h using alamarBlue (ThermoFisher, USA). […] IC50 values were determined by four-parameter nonlinear regression analyses using GraphPad Prism™ version 8 software (San Diego, CA).

HL60 cells = assay: AsedaSciences SYSTEMETRIC Cell Health Screen (flow cytometry toxicity profiling); settings: for Cell Health Toxcity Profile CC (DyeCycle Violet) / Cell Health Toxcity Profile CM (Cell morphology) / Cell Health Toxcity Profile CMI (Cell membrane integrity) / Cell Health Toxcity Profile GSH (Glutathione) / Cell Health Toxcity Profile MMP (Mitochondrial membrane depolarization) / Cell Health Toxcity Profile NMI1 (Nuclear membrane integrity 1) / Cell Health Toxcity Profile NMI2 (Nuclear membrane integrity 2) / Cell Health Toxcity Profile ROS (Reactive superoxide species) / Cell Health Toxcity Profile CHI: SYSTEMETRIC Cell Health Screen, assay n=2; for Cell Health Toxcity Profile CHI: classifier output; for CC: Cell Cycle score / CM: Cell morphology score / CMI: Cell membrane integrity score / GSH: Glutathione score / MMP: Mitochondrial membrane depolarization score / NMI1: Nuclear membrane integrity 1 score / NMI2: Nuclear membrane integrity 2 score / ROS: Reactive superoxide species score / CHI: Cell Health Index: HL60, 4 h, 5 nM–100 µM; for CC: Cell Cycle score / CM: Cell morphology score / CMI: Cell membrane integrity score / GSH: Glutathione score / MMP: Mitochondrial membrane depolarization score / NMI1: Nuclear membrane integrity 1 score / NMI2: Nuclear membrane integrity 2 score / ROS: Reactive superoxide species score: probability 0–1, n = 2; for CHI: Cell Health Index: probability (0–1) of high-risk class, n = 2
Summary of the method: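 Risk scores derive from a logistic-regression ML classifier comparing flow-cytometric stress phenotypes with those of 300 reference compounds of known high or low human risk. Phenotypes: light scatter plus fluorescent physiological dyes, twelve parameters, no gating. Compounds tested 5 nM–100 µM (3× steps, duplicate) on HL60 cells, 4 h, 37 °C.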

U-CH1 chordoma cell line = assay: Cell viability assay (alamarBlue, 72 h), U-CH1; type: cell-based, human
Protocol: as §1, §2

SMILES | IC50 (U-CH2 chordoma cell line; n = 4, 72 h) | Cell Health Toxcity Profile CC (DyeCycle Violet) (HL60 cells) | Cell Health Toxcity Profile CM (Cell morphology) (HL60 cells) | Cell Health Toxcity Profile CMI (Cell membrane integrity) (HL60 cells) | Cell Health Toxcity Profile GSH (Glutathione) (HL60 cells) | Cell Health Toxcity Profile MMP (Mitochondrial membrane depolarization) (HL60 cells) | Cell Health Toxcity Profile NMI1 (Nuclear membrane integrity 1) (HL60 cells) | Cell Health Toxcity Profile NMI2 (Nuclear membrane integrity 2) (HL60 cells) | Cell Health Toxcity Profile ROS (Reactive superoxide species) (HL60 cells) | Cell Health Toxcity Profile CHI (HL60 cells) | IC50 (U-CH1 chordoma cell line; n = 4, 72 h) | CC: Cell Cycle score (HL60 cells) | CM: Cell morphology score (HL60 cells) | CMI: Cell membrane integrity score (HL60 cells) | GSH: Glutathione score (HL60 cells) | MMP: Mitochondrial membrane depolarization score (HL60 cells) | NMI1: Nuclear membrane integrity 1 score (HL60 cells) | NMI2: Nuclear membrane integrity 2 score (HL60 cells) | ROS: Reactive superoxide species score (HL60 cells) | CHI: Cell Health Index (HL60 cells) | further results
C#Cc1cccc(Nc2c(C#N)cnc3ccc(Br)cc23)c1 [Compound 27] | 30 µM | 0.98 | 1.00 | 1.00 | 0.98 | 0.96 | 0.32 | 0.98 | 1.00 | 0.75 | 22 µM |  |  |  |  |  |  |  |  |  | 
C#Cc1cccc(Nc2ncnc3ccc(Cl)cc23)c1 [Compound 7] | > 100 µM |  |  |  |  |  |  |  |  |  | 25 µM | 0.10 | 0.0047 | 0.030 | 0.011 | 0.015 | 0.13 | 0.053 | 0.20 | 0.16 | 
C#Cc1cccc(Nc2ncnc3cc(F)ccc23)c1 [Compound 12] | > 100 µM |  |  |  |  |  |  |  |  |  | 41 µM | 0.59 | 0.058 | 0.045 | 0.004 | 0.74 | 0.21 | 0.19 | 0.77 | 0.40 | 
C#Cc1cccc(Nc2c(C#N)cnc3ccc(S(C)(=O)=O)cc23)c1 [Compound 29] | 52 µM | 0.071 | 0.003 | 0.037 | 0.039 | 0.021 | 0.18 | 0.009 | 0.046 | 0.16 | 92 µM |  |  |  |  |  |  |  |  |  | 
C#Cc1cccc(Nc2c(C#N)cnc3cc(Cl)ccc23)c1 [Compound 30] | > 100 µM | 0.17 | 0.31 | 0.25 | 0.065 | 0.080 | 0.69 | 0.041 | 0.44 | 0.35 | > 100 µM |  |  |  |  |  |  |  |  |  | 
C#Cc1cccc(Nc2ncnc3ccc(C#N)cc23)c1 [Compound 18] | > 100 µM |  |  |  |  |  |  |  |  |  | 74 µM | 0.27 | 0.0026 | 0.0079 | 0.023 | 0.11 | 0.33 | 0.094 | 0.042 | 0.18 | 
C#Cc1cccc(Nc2c(C#N)cnc3ccc(F)cc23)c1 [Compound 25] | > 100 µM | 0.76 | 0.98 | 0.99 | 0.97 | 0.96 | 0.71 | 0.72 | 0.93 | 0.69 | 23 µM |  |  |  |  |  |  |  |  |  | 
C#Cc1cccc(Nc2ncnc3ccccc23)c1 [Compound 3] | 52 µM |  |  |  |  |  |  |  |  |  | 35 µM | 0.86 | 0.96 | 0.99 | 0.98 | 1.00 | 0.53 | 0.76 | 0.98 | 0.74 | 
C#Cc1cccc(Nc2c(C#N)cnc3ccc(OC)cc23)c1 [Compound 23] | > 100 µM | 0.74 | 0.020 | 0.0039 | 0.0085 | 0.28 | 0.30 | 0.11 | 0.056 | 0.26 | 20 µM |  |  |  |  |  |  |  |  |  | 
C#Cc1cccc(Nc2c(C#N)cnc3cc(Br)ccc23)c1 [Compound 31] | > 100 µM | 0.92 | 0.95 | 0.88 | 0.92 | 0.84 | 0.45 | 0.34 | 0.87 | 0.59 | > 100 µM |  |  |  |  |  |  |  |  |  | 
C#Cc1cccc(Nc2c(C#N)cnc3ccc(Cl)cc23)c1 [Compound 26] | 40 µM | 0.93 | 1.00 | 1.00 | 0.99 | 0.99 | 0.98 | 0.97 | 1.00 | 0.83 | 14 µM |  |  |  |  |  |  |  |  |  | 
C#Cc1cccc(Nc2ncnc3ccc(Br)cc23)c1 [Compound 8] | > 100 µM |  |  |  |  |  |  |  |  |  | 16 µM | 0.087 | 0.0037 | 0.0024 | 0.05 | 0.11 | 0.13 | 0.020 | 0.083 | 0.19 | 
C#Cc1cccc(Nc2c(C#N)cnc3cc(OC)c(OC)cc23)c1 [Compound 22, 4-((3-ethynylphenyl)amino)-6,7-dimethoxyquinoline-3-carbonitrile] |  | 0.33 | 0.35 | 0.77 | 0.071 | 0.39 | 0.67 | 0.29 | 0.81 | 0.40 |  |  |  |  |  |  |  |  |  |  | IC50 (U-CH2 chordoma cell line; Homo sapiens, UCH2, n = 4, 72 h): 36 µM; IC50 (U-CH1 chordoma cell line; Homo sapiens, UCH1, n = 4, 72 h): 4.1 µM
